One block for each molecule: values may come before it.
Assays:
D-Dimer response = assay: Reduction in IAS and FAS D-Dimer response in patients with COVID-19 infection; format: in vivo, human; details: COVID-19 patients, infused at 12 mg/hr for up to 7 days
Description: D-Dimer formation is elevated in patients with ARDS and COVID. A study was performed to determine the ability of TRV027 to reduce the effects of D-Dimer formation. […] Each group was monitored for an IAS D-Dimer response (>30% reduction) and a FAS D-Dimer response (>30% reduction). In the control group, 2/8 patients had greater than a 30% reduction in the IAS D-Dimer response and 1/7 patients had greater than a 30% reduction in the FAS D-Dimer response. […] Therefore, the data illustrates the effect of a peptide as provided for herein can have on the reduction in the D-Dimer response. It is anticipated that the reduction in the D-Dimer response as measured by these assays will lead to clinical benefit in patients that are infected and/or hospitalized with COVID-19.

rat AT1aR = biological target: T1, rat AT1aR (Rattus norvegicus, UniProt P25095); assay: PathHunter β-arrestin-2 recruitment assay, rat AT1aR; format: cell-based; details: PathHunter β-arrestin HEK293 cells; inactive = EC50 greater than 10 uM
T1 sequence (P25095 1-359): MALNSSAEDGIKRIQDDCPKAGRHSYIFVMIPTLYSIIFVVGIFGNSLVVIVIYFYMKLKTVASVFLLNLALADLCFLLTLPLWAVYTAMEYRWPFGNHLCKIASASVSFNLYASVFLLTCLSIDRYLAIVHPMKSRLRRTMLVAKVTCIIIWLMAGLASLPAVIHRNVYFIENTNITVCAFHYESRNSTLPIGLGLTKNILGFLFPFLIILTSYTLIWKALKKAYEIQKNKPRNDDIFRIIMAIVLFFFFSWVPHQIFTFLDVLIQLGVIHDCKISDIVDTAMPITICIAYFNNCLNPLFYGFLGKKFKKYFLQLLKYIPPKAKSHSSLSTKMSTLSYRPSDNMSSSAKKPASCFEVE
Description: The proximal event in β-arrestin function mediated by GPCRs is recruitment to receptors following ligand binding and receptor phosphorylation by GRK's. Thus, the measure of β-arrestin recruitment was used to determine ligand efficacy for β-arrestin function.
B-arrestin-2 recruitment to the human and rat angiotensin 2 type 1 receptor (human AT1R and rat AT1aR, respectively) was measured with the PathHunter™ β-arrestin assay (DiscoveRx Corporation, Fremont Calif.). Cells, plasmid(s), and detection reagent(s) were purchased from DiscoveRx, and assays were performed per the manufacturer's instructions. Human AT1R and rat AT1aR were cloned into the pCMV-ProLink vector, verified by sequencing, and transfected into PathHunter β-arrestin HEK293 cells. Stably transfected clonal cell lines were selected with Hygromycin and G418. These clonal cell lines were used for all experiments.
For assays, 25,000 cells were seeded per well in 96-well microplates in volumes of 90 μL and allowed to grow overnight at 37° C. in 5% CO2. Peptides provided herein were dissolved in deionized water to a concentration of 1 mM. […] The microplates were then incubated at room temperature for 60 minutes, and then luminescence was measured using a NOVOstar microplate reader purchased from BMG Labtech. B-arrestin-2 recruitment to receptors was measured as relative luminescence intensity expressed in arbitrary units.

[1] = biological target: T2, human angiotensin 2 type 1 receptor (human, UniProt P30556 1-359); assay: cell-based or functional assay
T2 sequence (looked up): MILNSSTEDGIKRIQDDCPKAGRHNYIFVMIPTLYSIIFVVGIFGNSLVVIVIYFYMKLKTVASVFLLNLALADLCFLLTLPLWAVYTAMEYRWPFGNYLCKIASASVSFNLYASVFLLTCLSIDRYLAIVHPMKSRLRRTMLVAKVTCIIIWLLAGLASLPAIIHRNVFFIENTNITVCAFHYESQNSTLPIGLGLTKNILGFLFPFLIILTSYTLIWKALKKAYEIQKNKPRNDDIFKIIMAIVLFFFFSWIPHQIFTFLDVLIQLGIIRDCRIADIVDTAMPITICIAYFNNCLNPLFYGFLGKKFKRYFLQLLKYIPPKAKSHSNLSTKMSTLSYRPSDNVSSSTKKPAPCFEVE

[2] = biological target: T3, rat angiotensin 2 type 1 receptor (rat, UniProt P25095 1-359); assay: cell-based or functional assay
T3 sequence (looked up): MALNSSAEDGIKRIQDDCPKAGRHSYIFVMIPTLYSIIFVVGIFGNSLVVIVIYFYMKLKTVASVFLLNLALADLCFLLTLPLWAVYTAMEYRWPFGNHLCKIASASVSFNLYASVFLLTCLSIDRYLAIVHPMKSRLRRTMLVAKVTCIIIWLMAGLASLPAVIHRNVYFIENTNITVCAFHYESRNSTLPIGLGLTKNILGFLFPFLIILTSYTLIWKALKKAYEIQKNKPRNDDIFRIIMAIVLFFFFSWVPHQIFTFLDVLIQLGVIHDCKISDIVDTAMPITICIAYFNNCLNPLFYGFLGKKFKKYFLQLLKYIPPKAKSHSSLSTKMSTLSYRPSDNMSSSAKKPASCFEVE

Molecule: CC[C@H](C)[C@H](NC(=O)[C@H](Cc1ccc(O)cc1)NC(=O)[C@@H](NC(=O)[C@H](CCCNC(=N)N)NC(=O)CNC)C(C)C)C(=O)N[C@@H](Cc1cnc[nH]1)C(=O)N1CCC[C@H]1C(=O)N[C@H](C)C(=O)O [SEQ ID NO: 27, Sar-Arg-Val-Tyr-Ile-His-Pro-D-Ala-OH]
- patients with greater than 30% reduction in the FAS D-Dimer response (D-Dimer response): 4 out of 9
- patients with greater than 30% reduction in the IAS D-Dimer response (D-Dimer response): 5 out of 11

- rat AT1aR b-arrestin2 EC50 (M) (rat AT1aR): inactive
Molecule: CCCCC(=O)N(Cc1ccc(-c2ccccc2-c2nnn[nH]2)cc1)[C@H](C(=O)O)C(C)C [Valsartan]

- b-arrestin2 Max (%) [1]: 47.3%
- b-arrestin2 Max (%) [2]: 71.9%
Molecule: ARVYIHPA (NMAla (N-Methyl-L-alanine) at X1; D-Ala at X8) [SEQ ID NO: 44 (NMAla-Arg-Val-Tyr-Ile-His-Pro-D-Ala-OH)]

From patent US20210324005A1, “Beta-Arrestin Effectors and Compositions and Methods of Use Thereof” (Trevena, Inc., priority 2020, published 2021)
